We go through three molecules from paper PMC5426667, “Action of tyrosinase on alpha and beta-arbutin: A kinetic study” (PLoS ONE, 2017).

In general, pKa refers to the negative logarithm of the acid dissociation constant. As a reminder, the Km is the substrate concentration at which the rate is half of its maximum.

For series [1] the following is noted: deprotonated form is the nucleophile; no reference given; cited from earlier work.
Series [2] has as its target T1, Mushroom tyrosinase (Agaricus bisporus, UniProt C7FF04). Briefly: Apparent inhibition of the diphenolase activity of tyrosinase (L-dopa as substrate, dopachrome at 475 nm). As to conditions: for type of inhibition of the diphenolase activity: Lineweaver-Burk, 3 mM arbutin; for degree of inhibition of the diphenolase activity (maximum reached): [E]0 = 30 nM, [L-dopa]0 = 0.5 mM, arbutin up to 30 mM. On the set-up: purchased Sigma (Madrid, Spain). Format: biochemical. The protocol: (§1) Mushroom tyrosinase (3130 U/mg) was obtained from Sigma (Madrid, Spain) and purified as previously described. Bradford’s method was used to determine the protein content using bovine serum albumin as standard.
(§2) Spectrophotometric assays were carried out with a PerkinElmer Lambda-35 spectrophotometer, online interfaced with a compatible PC 486DX microcomputer controlled by UV-Winlab software, where the kinetic data were recorded, stored, and analyzed.
(§3) The diphenolase activity of tyrosinase on L-dopa and the monophenolase activity on L-tyrosine were measured at 475 nm, the maximum absorption wavelength of dopachrome. To measure the activity of tyrosinase on L-tyrosine, the quantity of o-diphenol necessary to reach the steady state at time t = 0 was added. In this way, the characteristic lag period of the monophenolase activity, which complicates the measurement of the V0, was eliminated. This quantity is given by the equation R = [D]ss / [M]ss, where [D]ss and [M]ss are the concentrations of o-diphenol and monophenol respectively in the steady state with [M]ss ≈ [M]0. All the assays were carried out with R = 0.042.
All of the assays were carried out at 25°C, using 30 mM phosphate buffer at pH 7.0. Three repetitions of each experiment were made.
The degrees of inhibition (i) were calculated using tyrosinase, L-dopa, L-tyrosine and the following formula: i (%) = [(V0-Vi)/V0] x 100, where V0 is the initial rate of the control and Vi the initial rate in the presence of the target molecule. The initial rates were obtained by linear regression fitting of the initial portions of each experimental recording.

Series [3] concerns the target T1, Mushroom tyrosinase. Briefly: Kinetic characterization of arbutins as substrates of tyrosinase in the presence of MBTH. Format: biochemical. As to conditions: [E]0 = 100 nM, [MBTH]0 = 0.2 mM, DMF 2%, pH 7.0, 25°C; for Km: read-out: KM (Michaelis constant) as substrate of tyrosinase. As to the method:
This adduct is oxidized by another molecule of o-quinone, leading to the accumulation of o-diphenol in the medium, so, the system reach the steady state. This assay method is highly sensitive, reliable, and precise. […] The sequence of reactions is described in S1B Fig. All of the assays were carried out at 25°C, using 30 mM phosphate buffer at pH 7.0. Three repetitions of each experiment were made. Initial rate values (V0) were calculated at different substrate concentrations. The assays were carried out in saturating conditions of O2 [47-49]. The data for V0 vs. [arbutin]0 were represented and fitted to the Michaelis-Menten equation using the Sigma Plot 9.0 program for Windows, providing the maximum rate (Vmax) and the Michaelis constant (KM). […] These compounds were solubilised by adding 2% (v/v) DMF to the reaction medium. […] KM and kcat values were obtained fitting by non-linear regression (Table 2) the initial rate values vs. the concentration of substrate to the Eq 1 (Fig 7 and 7 Inset).

Series [4] concerns the target T1, Mushroom tyrosinase. Briefly: Apparent inhibition of the monophenolase activity of tyrosinase (L-tyrosine as substrate, dopachrome at 475 nm). Format: biochemical. The settings on record: Lineweaver-Burk, 3 mM arbutin. The protocol:
as §1, §2
as §3, with “0.042. […]” for “0.042.”
The degrees of inhibition (i) were calculated using tyrosinase, L-dopa, L-tyrosine and the following formula: i (%) = [(V0-Vi)/V0] x 100, where V0 is the initial rate of the control and Vi the initial rate in the presence of the target molecule. […]

A value given as a limit tells only on which side of the number the result lay.

T1 sequence (C7FF04 1-392): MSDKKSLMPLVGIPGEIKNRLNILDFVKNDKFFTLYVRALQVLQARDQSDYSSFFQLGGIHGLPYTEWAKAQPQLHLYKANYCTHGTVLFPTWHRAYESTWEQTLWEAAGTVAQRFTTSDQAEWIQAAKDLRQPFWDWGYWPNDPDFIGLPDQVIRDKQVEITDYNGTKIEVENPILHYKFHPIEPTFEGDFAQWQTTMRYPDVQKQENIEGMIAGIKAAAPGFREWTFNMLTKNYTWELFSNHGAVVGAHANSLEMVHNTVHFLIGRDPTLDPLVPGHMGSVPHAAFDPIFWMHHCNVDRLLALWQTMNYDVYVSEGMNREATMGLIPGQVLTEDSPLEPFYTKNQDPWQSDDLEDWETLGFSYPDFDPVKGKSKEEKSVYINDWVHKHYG

Regarding `Cl.Cn1c(=NN)sc2ccccc21.O` [MBTH, 3-methyl-2-benzothiazolinone hydrazone hydrochloride hydrate], the pKa in series [1] was 5.8 ± 0.4.

As to `OC[C@H]1O[C@H](Oc2ccc(O)cc2)[C@H](O)[C@@H](O)[C@@H]1O` [α-Arbutin, (2R,3S,4S,5R,6R)-2-(hydroxymethyl)-6-(4-hydroxyphenoxy)oxane-3,4,5-triol], in series [2], the “type of inhibition of the diphenolase activity” value is “apparent competitive inhibition” and the “degree of inhibition of the diphenolase activity (maximum reached)” value was below 100%. Also, in series [3], the “kcat (catalytic constant) as substrate of tyrosinase” value is 4.43 ± 0.33 s⁻¹ and the Km came out at 6.5 ± 0.58 mM. In series [4], the “type of inhibition of the monophenolase activity” value is given as “apparent competitive inhibition”.

Turning to `OC[C@H]1O[C@@H](Oc2ccc(O)cc2)[C@H](O)[C@@H](O)[C@@H]1O` [β-Arbutin, (2R,3S,4S,5R,6S)-2-(hydroxymethyl)-6-(4-hydroxyphenoxy)oxane-3,4,5-triol], in series [2], the “type of inhibition of the diphenolase activity” value is recorded as “apparent competitive inhibition” and the “degree of inhibition of the diphenolase activity (maximum reached)” value is below 100%. For the same molecule, in series [3], the “kcat (catalytic constant) as substrate of tyrosinase” value amounted to 3.77 ± 0.29 s⁻¹ and the Km was found to be 3 ± 0.19 mM. For the same molecule, the “type of inhibition of the monophenolase activity” value in series [4] is “apparent competitive inhibition”.
